Usually melting point stands for the temperature of the solid-liquid transition. As to `COc1cc(C2C3=C(CNC3=O)Nc3cc4c(cc32)OCO4)cc(OC)c1OC` (configuration not stated), the melting point was 244 °C.

On to `Cc1ccnc(C(O)c2ccc(N)cc2)c1` (configuration not stated), for which the melting point lay within 156 to 158 °C.

`CC(=O)Nc1ccc2c(c1)S(=O)(=O)N(CCCCN1CCN(c3ncccn3)CC1)C2=O` gave a melting point of 162 °C.

In the case of `CCc1nc2cc(C(F)(F)F)c(Cl)cc2n1-c1ccc(C[C@H](C)OC(=O)NS(=O)(=O)c2ccc(C)cc2)cc1`, the melting point was 200 °C.

Compound `CC(C)(C)CC(C)(C)c1cc(-n2nc3ccc([N+](=O)[O-])cc3n2)c(O)c(C(C)(C)c2ccccc2)c1` showed a melting point of 153 to 156 °C.

In the case of `O=C(NCc1ccccc1)NCC(C(=O)O)C(F)(F)F` (configuration not stated), the melting point was 183 to 184 °C.

Take `Cn1ncc(C(=O)c2ccc(S(C)(=O)=O)c(C3=NOCC3)c2Cl)c1O`: the melting point is more than 250 °C.

As to `COC(=O)/C=C/[C@H]1[C@@H](C(=O)OCc2cnc(Oc3ccccc3)s2)C1(C)C`, the melting point came to 62 °C.

In the case of `CC(=O)OC1C(C)OC(Oc2ncn(Cc3ccc([N+](=O)[O-])cc3)c2C(N)=O)C(OC(C)=O)C1OC(C)=O` (configuration not stated), the melting point fell in the range of 103 to 105 °C.

In turn, `Cn1c(C(F)(F)F)cc(=O)n(-c2ccc(Cl)c(C=O)c2)c1=O` registered a melting point of 151 to 153 °C.

For the compound `Nc1sc2c(c1C(=O)c1ccc3c(c1)Cc1ccccc1-3)CCN(Cc1ccccc1)C2`, the melting point lay within 197 to 200 °C.

Take `Cc1c(C(=O)CBr)ccn1S(=O)(=O)c1ccccc1`: the melting point is 108 to 110 °C.

`CCC(C)N(C)C(=O)c1nc(-c2ccccc2)c2ccccc2n1` (configuration not stated) displayed a melting point of 128 °C.

The compound `CCCCCCCCCCCCCCCCNc1ccc(C(=O)NS(=O)(=O)C(F)(F)F)cc1` registered a melting point of 172 to 174 °C.

The compound `COc1c(NOCc2ccc(C(C)(C)C)cc2)ccnc1C` showed a melting point of 113 °C.

`CC12CCC3C(CC(Cl)C4(O)CC=CCC34C)C1CC=C2Br` (configuration not stated) registered a melting point of 125 to 126 °C.

`N#Cc1ccc2[nH]c(-c3ccc(-c4ccc(C#N)c(F)c4)cc3)nc2c1` gave a melting point of 302 to 305 °C.

In the case of `c1ccc(-c2nc(COc3ccc(CCCn4ccnc4)cc3)co2)cc1`, the melting point is 111 to 112 °C.

As for `N#CC(=NO)c1cccc(C(=O)c2ccccc2)c1`, the melting point fell in the range of 147 to 148 °C.

`CCCc1nc2c(N)nc3ccc(-c4cccc(CO)c4)cc3c2s1`: the melting point fell in the range of 176 to 177 °C.

For `CC=C(C(=O)OC)c1ccccc1CBr`, the melting point fell in the range of 64 to 66 °C.

`NNc1c(F)cc(F)c(F)c1F` returned a melting point of 63 to 65 °C.

In the case of `CNC(=O)c1ccc(CCN2CC=C(c3c[nH]c(-c4ccc(F)cc4)c3-c3ccncc3)CC2)cc1`, the melting point was 231 to 233 °C.

As to `CC1CC(=O)N(Cc2ccccc2)c2ccccc2N1C(=O)CN1C(=O)c2ccccc2C1=O` (configuration not stated), the melting point lay in the range of 248 to 250 °C.

Compound `COC(=O)C(O)P(C)(C)=O` (configuration not stated) returned a melting point of 84 to 86 °C.

As for `CC(=O)c1ccc(NC(=O)NCC2(c3ccccc3)CCCCC2)cc1`, the melting point was in the range of 164 to 165 °C.

Regarding `O=C1CCC2=C1C(c1ccc(F)c(C(F)(F)F)c1)C1=C(CCS1)N2` (configuration not stated), the melting point was determined as 254 °C.

`O=C(OCC1CCC1)c1ncc2n1-c1cccc(Br)c1C(=O)N1CCC[C@@H]21` had a melting point of 170 to 172 °C.

Turning to `CCn1cc(C(=O)NCc2ccc(Cl)cc2)c(=O)c2cc(C#CCOC(=O)CCC(=O)O)sc21`, the melting point was in the range of 180 to 182 °C.

Compound `Fc1ccc(/C=C/c2cc(F)cc(F)c2)cc1` had a melting point of 47 °C.

In the case of `CC(=O)Nc1ccc(Cn2cnc3c(-c4ccco4)ncnc32)cc1`, the melting point is 278 to 280 °C.

`N#Cc1ccc(-c2ccc(C#N)cc2-c2nc3ccccc3[nH]2)c(-c2nc3ccccc3[nH]2)c1`: the melting point is 347 to 349 °C.

`O=C(O)C1CCc2c(c3ccccc3n2C(=O)c2cccs2)C1` (configuration not stated) returned a melting point of 180 to 182 °C.

`CC(C)c1ccc(C(=O)C2=C(O)C(=O)N(c3ncc(Sc4ccc([N+](=O)[O-])cc4)s3)C2c2ccc(OC(F)(F)F)cc2)cc1` (configuration not stated) returned a melting point of 238 °C.

On to `CCC(CC)C(O)C(O)C(CC1CCCCC1)NC(=O)C(Cc1c[nH]cn1)NC(=O)C(CC(=O)C(C)(C)C)Cc1ccccc1` (configuration not stated), for which the melting point turned out to be 160 °C.

In turn, `CCOc1cc(C(=O)CCCC2CCCCC2)c(O)cc1C` gave a melting point of 48 to 49 °C.

Compound `COc1ccccc1C(=O)c1c(SC)oc2ccccc2c1=O` returned a melting point of 145 °C.

In turn, `C=C1CC2C(CCC3(C)C2CCC3(OC(=O)CCCCC)C(C)=O)C2(COC(C)=O)CCC(=O)C=C12` (configuration not stated) displayed a melting point of 111 to 112 °C.

`Cc1nc(N)c(C(N)=S)s1` returned a melting point of 209 to 213 °C.

`CCc1nc(OC)c(NC(=O)N2CCN(c3cc(C)cc(C)c3)CC2)cc1C(=O)NC(C)C(=O)Nc1cc(CO)cc(Nc2c3ccccc3nc3ccc(C)cc23)c1` (configuration not stated) yielded a melting point of 164 to 166 °C.

Take `COCc1ccc(N=C2NCCN2)c(Cl)c1`: the melting point lay within 108 to 110 °C.

Compound `NS(=O)(=O)c1cccc(NC(=O)c2cnn3ccc(-c4ccc(C(F)(F)F)cc4)nc23)c1` displayed a melting point of 318 to 320 °C.

Turning to `O=Cc1cc(Cl)ccc1OC/C=C/CCl`, the melting point lay within 62 to 63 °C.

Regarding `Cc1cc(OS(=O)(=O)c2ccccc2)cc2c(C3CCN(C)CC3)c[nH]c12`, the melting point came to 118 °C.

As to `COc1ccc2c(c1F)C(=O)OC2=O`, the melting point fell in the range of 128 to 130 °C.

`COc1ccc(-c2cncc(OC3SCC(O)C(O)C3O)c2)cc1` (configuration not stated) showed a melting point of 216 °C.

In turn, `Cc1oc(-c2ccccc2)nc1COc1ccc(Cc2nc(-c3ccccc3)c(CCC(=O)O)o2)cc1` displayed a melting point of 142 to 143 °C.

Compound `CC(C)(C)c1ccc(C(N)=O)cc1N` showed a melting point of 140 to 142 °C.

Turning to `CCCCCC(CC(=O)Nc1cc(C(=O)O)ccc1C(C)(C)C)c1ccc(C)cc1OC` (configuration not stated), the melting point was in the range of 164 to 165 °C.

`O=C(O)C1=CSC2C(=Cc3cn4c(n3)CCCCC4)C(=O)N12` (configuration not stated): the melting point is more than 250 °C.

In turn, `C/C=C/c1ccc2nc(Cl)c(S(N)(=O)=O)n2n1` showed a melting point of 225 to 229 °C.

The compound `O=C1OC2(CC(c3ccc(F)cc3)=NO2)c2ccccc21` (configuration not stated) had a melting point of 142 to 145 °C.

The compound `COc1cc2ncnc(NC3=CC(=O)C4(C(C)C)OC4C3=O)c2cc1OC` (configuration not stated) returned a melting point of 188 to 190 °C.

The compound `CCC(=O)NC1CCC(CNc2nc3c(s2)CCOc2ccccc2-3)CC1` (configuration not stated) showed a melting point of 70 to 73 °C.

In turn, `CCn1ncc2c3onc(-c4cccc(OC)c4)c3cnc21` came in with a melting point of 130 to 131 °C.

Consider `CCOC(=O)CNC(=O)Oc1cccc2ccc(C)nc12`, for which the melting point was 118 to 120 °C.

`CC1(C)Cc2cccc(O)c2S1` gave a melting point of 87 to 92 °C.

In turn, `Cc1c(Cc2ccc(F)c(Cl)c2)sc2c(-c3cccc(C(=O)NCCO)c3)cccc12` yielded a melting point of 146 to 147 °C.

With `C=CCC(C(=O)O)c1ccccc1` (configuration not stated), the melting point worked out at 34 °C.

`Nc1nc(-n2cc(C(=O)O)c(=O)c3cc(F)c(N4CC(O)C4)c(Br)c32)c(F)cc1F`: the melting point is 215 to 220 °C.

For `CC12CCC(O)CC1=CCC1C2CCC2(C)C(c3ccsc3)=CCC12` (configuration not stated), the melting point lay within 215 to 219 °C.

`COc1ccc2[nH]c(C)cc2c1O` came in with a melting point of 118 to 119 °C.

The values are drawn from a melting point compilation (Tetko et al.; mined from patent text by program, amines drawn as free bases though some values may be those of a salt).
